Test results taken from patent US12331068B2, “Compositions and methods for inhibiting CD73” (Peloton Therapeutics, Inc., priority 2018, dated 2025).
Where two headings read alike, the source gives them in different places.

Assays:
Human CD73 = molecular target: T1, Human CD73 (Homo sapiens, UniProt P21589); experiment: CD73 Enzyme Assay (EnzChek PNP/MESG kinetic readout of AMP hydrolysis); format: biochemical; conditions: 0.25 nM hCD73, 25 μM AMP
T1 construct: purchased R&D Systems; host or cells: CHO cells
T1 sequence (P21589 27-549): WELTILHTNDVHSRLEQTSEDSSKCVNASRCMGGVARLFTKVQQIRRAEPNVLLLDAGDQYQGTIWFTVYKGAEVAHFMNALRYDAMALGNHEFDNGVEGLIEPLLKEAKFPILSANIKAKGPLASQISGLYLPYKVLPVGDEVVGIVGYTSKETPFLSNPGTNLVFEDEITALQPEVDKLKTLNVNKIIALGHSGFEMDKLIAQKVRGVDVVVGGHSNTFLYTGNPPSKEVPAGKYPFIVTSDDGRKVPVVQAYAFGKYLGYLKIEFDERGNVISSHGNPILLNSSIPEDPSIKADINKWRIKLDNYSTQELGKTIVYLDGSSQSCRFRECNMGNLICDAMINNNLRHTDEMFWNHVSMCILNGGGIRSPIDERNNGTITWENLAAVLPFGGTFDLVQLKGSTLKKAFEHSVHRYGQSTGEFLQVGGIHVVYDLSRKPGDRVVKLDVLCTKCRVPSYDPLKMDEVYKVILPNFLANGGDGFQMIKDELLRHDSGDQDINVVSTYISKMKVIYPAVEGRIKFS
Procedure: A compound of the present disclosure (5 μL) was transferred to a 384-well assay plate. The compound was added in a 15 point, 3-fold serial dilution (300 μM to 0.0002 μM) in DMSO. […] The plate was immediately placed in a plate reader (Synergy 2 or Spark 10), and a reading was taken every minute for 10 to 20 minutes in a kinetic run at 360 nm. The linear portion of the curve was used to determine the observed rate (initial velocity). Low signal controls containing 100 μM adenosine 5′-(α,β-methylene) diphosphate and high signal controls containing no compound were measured for each plate.
IC50 values were calculated using Dotmatics template equation for 4-parameter fit. Results are expressed as % inhibition using the following equation: […]

[1] = molecular target: T2, CD73 on U138 human neuroglioma cells (Homo sapiens, UniProt P21589); experiment: CD73 Cell-Based Assay (inorganic phosphate from AMP, malachite green); conditions: AMP substrate, 2 hours at 37° C., read-out: CD73 Cell-Based assay IC50
T2 construct: U138 cells were obtained from ATCC and cultured in DMEM with 10% FBS; host or cells: U138 human neuroglioma cells
T2 sequence (P21589 27-549): T1 sequence (P21589 27-549)
Procedure: U138 human neuroglioma cells were used in these experiments. U138 cells were obtained from ATCC and cultured in DMEM with 10% FBS. 2500 cells were seeded into 96-well plate with 100 μL of media the day before the experiment. […] After washing, 100 μL of buffer was added to each well, then 100 μL of a mixture of AMP substrate (200 μM) and diluted compound was added to each well. The cells were incubated at 37° C. (with 5% CO2) for 2 hours. 50 μL of supernatant was transferred to a 96-well assay plate and the concentration of inorganic phosphate was determined using malachite green reagent (R&D System; Cat: DY996).

[2] = read-out: CD73 Enzyme Assay IC50

Structure (SMILES)	IC50 (Human CD73; [2]) [µM]	IC50 [1] [µM]	IC50 (Human CD73; low signal control compound, read-out: IC50) [µM]
N#Cc1c(Cl)nc2c(ncn2[C@@H]2O[C@H](CS(=O)(=O)CP(=O)(O)O)[C@@H](O)[C@H]2O)c1NC1CC(F)C1 (stereo partly drawn) [Compound 117]	< 0.01	< 0.01	
N#Cc1c(Cl)nc2c(ccn2[C@@H]2O[C@H](COP(=O)(O)CP(=O)(O)O)[C@@H](O)[C@H]2O)c1N1CC2CC2C1 (stereo partly drawn) [Compound 29]	< 0.01	< 0.01	
N#Cc1c(Cl)nc2c(ncn2[C@@H]2O[C@H](COP(=O)(O)CP(=O)(O)O)[C@@H](O)[C@H]2O)c1N1CC2CC2C1 (stereo partly drawn) [Compound 63]	< 0.01	< 0.01	
N#Cc1c(Cl)nc2c(ccn2[C@@H]2O[C@H](COCP(=O)(O)O)[C@@H](O)[C@H]2O)c1N1CC2CC2C1 (stereo partly drawn) [Compound 12]	< 0.01	< 0.01	
CN(c1c(C#N)c(Cl)nc2c1ccn2[C@@H]1O[C@H](COCP(=O)(O)O)[C@@H](O)[C@H]1O)C1CC(F)(F)C1 [Compound 153]	< 0.01	0.01 to 0.1	
N#Cc1c(Cl)nc2c(ncn2[C@@H]2O[C@H](COCP(=O)(O)O)[C@@H](O)[C@H]2O)c1N1CC[C@@H](F)C1 [Compound 83]	< 0.01	< 0.01	
N#Cc1c(Cl)nc2c(c(F)cn2[C@@H]2O[C@H](COCP(=O)(O)O)[C@@H](O)[C@H]2O)c1N1CCC(F)(F)C1 [Compound 151]	< 0.01	< 0.01	
N#Cc1c(Cl)nc2c(ccn2[C@@H]2O[C@H](COCP(=O)(O)O)[C@@H](O)[C@H]2O)c1NC1CC(F)(F)C1 [Compound 10]	< 0.01	< 0.01	
N#Cc1c(Cl)nc2c(ncn2[C@@H]2O[C@H](COCP(=O)(O)O)[C@@H](O)[C@H]2O)c1N1CC[C@H](F)C1 [Compound 84]	< 0.01	< 0.01	
C[C@H](Nc1c(C#N)c(Cl)nc2c1ccn2[C@@H]1O[C@H](CS(=O)(=O)CP(=O)(O)O)[C@@H](O)[C@H]1O)c1ccc(F)cc1 [Compound 18, (((((2S,3S,4R,5R)-5-(6-chloro-5-cyano-4-(((S)-1-(4-fluorophenyl)ethyl)amino)-1H-pyrrolo[2,3-b]pyridin-1-yl)-3,4-dihydroxytetrahydrofuran-2-yl)methyl)sulfonyl)methyl)phosphonic acid]	< 0.01	< 0.01	
C[C@@H](Nc1c(C#N)c(Cl)nc2c1ccn2[C@@H]1O[C@H](COCP(=O)(O)O)[C@@H](O)[C@H]1O)c1ccc(F)cc1 [Compound 7]	< 0.01	< 0.01	
Nc1ncnc2c1ncn2[C@@H]1O[C@H](COP(=O)(O)CP(=O)(O)O)[C@@H](O)[C@H]1O [adenosine 5′-(α,β-methylene) diphosphate, reference compound]			0.05
N#Cc1c(Cl)nc2c(ccn2[C@@H]2O[C@H](COCP(=O)(O)O)[C@@H](O)[C@H]2O)c1N1CC(F)(F)C1 [Compound 65]	< 0.01	< 0.01	
N#Cc1c(Cl)nc2c(ncn2[C@@H]2O[C@H](CS(=O)(=O)CP(=O)(O)O)[C@@H](O)[C@H]2O)c1NC1CCC(F)(F)CC1 [Compound 126]	< 0.01	< 0.01	
N#Cc1c(Cl)nc2c(cnn2[C@@H]2O[C@H](COP(=O)(O)CP(=O)(O)O)[C@@H](O)[C@@H]2F)c1N1CCC(F)(F)C1 [Compound 95, (((((2R,3R,4S,5R)-5-(6-chloro-5-cyano-4-(3,3-difluoropyrrolidin-1-yl)-1H-pyrazolo[3,4-b]pyridin-1-yl)-4-fluoro-3-hydroxytetrahydrofuran-2-yl)methoxy)(hydroxy)phosphoryl)methyl)phosphonic acid]	< 0.01	< 0.01	
N#Cc1c(Cl)nc2c(cnn2[C@@H]2O[C@H](COCP(=O)(O)O)[C@@H](O)[C@H]2O)c1NC1CCCC1 [Compound 69, ((((2R,3S,4R,5R)-5-(6-chloro-5-cyano-4-(cyclopentylamino)-1H-pyrazolo[3,4-b]pyridin-1-yl)-3,4-dihydroxytetrahydrofuran-2-yl)methoxy)methyl)phosphonic acid]	< 0.01	< 0.01	
N#Cc1c(Cl)nc2c(ccn2[C@@H]2O[C@H](COCP(=O)(O)O)[C@@H](O)[C@@H]2F)c1N1CCC(F)(F)C1 [Compound 98]	0.01 to 0.1		
N#Cc1c(Cl)nc2c(ncn2[C@@H]2O[C@H](COCP(=O)(O)O)[C@@H](O)[C@@H]2F)c1N1CCC(F)(F)C1 [Compound 100]	0.01 to 0.1		
N#Cc1c(OCCO)nc2c(ccn2[C@@H]2O[C@H](COCP(=O)(O)O)[C@@H](O)[C@H]2O)c1NC1CCCC1 [Compound 2]	0.01 to 0.1		
N#Cc1c(OCCO)nc2c(ccn2[C@@H]2O[C@H](COCP(=O)(O)O)[C@@H](O)[C@H]2O)c1N1CC2CCCC2C1 (stereo partly drawn) [Compound 52]	> 0.1		
CNC(=O)c1c(Cl)nc2c(ccn2C2O[C@H](COCP(=O)(O)O)[C@@H](O)[C@H]2O)c1NC1CCCC1 (stereo partly drawn) [Compound 40]	0.01 to 0.1		
N#Cc1c(Cl)nc2c(cnn2[C@@H]2O[C@H](COCP(=O)(O)O)[C@@H](O)[C@@H]2F)c1N1CCC(F)(F)C1 [Compound 99, ((((2R,3R,4S,5R)-5-(6-chloro-5-cyano-4-(3,3-difluoropyrrolidin-1-yl)-1H-pyrazolo[3,4-b]pyridin-1-yl)-4-fluoro-3-hydroxytetrahydrofuran-2-yl)methoxy)methyl)phosphonic acid]	> 0.1		

More lines, main results first:

IC50 (Human CD73; [2]) [µM]	IC50 [1] [µM]	Structure (SMILES)	IC50 (Human CD73; low signal control compound, read-out: IC50) [µM]
< 0.01	< 0.01	C[C@H](Nc1c(C#N)c(Cl)nc2c1cnn2[C@@H]1O[C@H](CS(=O)(=O)CP(=O)(O)O)[C@@H](O)[C@H]1O)c1cccc(C#N)c1 [Compound 200]	
< 0.01	< 0.01	N#Cc1c(Cl)nc2c(cnn2[C@@H]2O[C@H](COP(=O)(O)CP(=O)(O)O)[C@@H](O)[C@H]2O)c1NC1CCCC1 [Compound 244]	
< 0.01	< 0.01	C[C@H](Nc1c(C#N)c(Cl)nc2c1cnn2[C@@H]1O[C@H](CS(=O)(=O)CP(=O)(O)O)[C@@H](O)[C@H]1O)c1cccc(F)c1 [Compound 180]	
< 0.01	< 0.01	C[C@H](Nc1c(C#N)c(Cl)nc2c1cnn2[C@@H]1O[C@H](CS(=O)(=O)CP(=O)(O)O)[C@@H](O)[C@H]1O)c1ccc(C#N)cc1 [Compound 185]	
< 0.01	< 0.01	N#Cc1nc2c(ccn2[C@@H]2O[C@H](COP(=O)(O)CP(=O)(O)O)[C@@H](O)[C@H]2O)c(NC2CCCC2)c1Cl [Compound 211]	
< 0.01	< 0.01	C[C@@H](Nc1c(C#N)c(Cl)nc2c1ccn2[C@@H]1O[C@H](COP(=O)(O)CP(=O)(O)O)[C@@H](O)[C@H]1O)c1ccc(C#N)cc1 [Compound 213]	
> 0.1		N#Cc1nc2c(ccn2[C@@H]2O[C@H](CS(=O)(=O)CP(=O)(O)O)[C@@H](O)[C@@H]2F)c(N)c1C#N [Compound 189]	
< 0.01		C[C@@H](Nc1c(C#N)c(Cl)nc2c1cnn2[C@@H]1O[C@H](COP(=O)(O)CP(=O)(O)O)[C@@H](O)[C@H]1O)c1ccc(F)cn1 [Compound 258]	
< 0.01		C[C@H](Nc1c(C#N)c(Cl)nc2c1cnn2[C@@H]1O[C@H](COP(=O)(O)CP(=O)(O)O)[C@@H](O)[C@H]1O)c1ccccc1F [Compound 260]	
< 0.01		C[C@@H](Nc1c(C#N)c(Cl)nc2c1cnn2[C@@H]1O[C@H](COP(=O)(O)CP(=O)(O)O)[C@@H](O)[C@H]1O)c1ccc(F)cc1 [Compound 270]	
< 0.01		C[C@H](Nc1c(C#N)c(Cl)nc2c1cnn2[C@@H]1O[C@H](COP(=O)(O)CP(=O)(O)O)[C@@H](O)[C@H]1O)c1ccc(F)cn1 [Compound 271]	
